US6641707B2, “Biodegradation-resistant electrodepositable coating compositions and methods related thereto” (PPG Industries Ohio, Inc., priority 2001, dated 2003)

Test system: aerobic heterotrophs
Test: Bacteria Resistance Testing: acids added to infected electrodeposition permeate, spread plate count on R2A agar
Assay type: cell-based
Conditions: reactors rolled at 32° C.; for Bacteria Count 3 day: plated at 3 days; for Bacteria Count 7 day: plated at 7 days; for Bacteria Count 10 day: plated at 10 days
Description: Infected rinsewater from an online electrodeposition bath tank (containing E6100, commercially available from PPG Industries, Inc.) having a bacterial count of 1.5×10^6 cfu/mL was used to inoculate filter-sterilized ultrafiltrate (“permeate”) collected from the same line. The infected rinsewater was diluted by a factor of 10^3 into the sterile permeate. The infected permeate was added to reactors. The various acids listed below in the following Table 2 were prepared as 1% solutions in water and tested at 1000, 500, and 200 ppm of active material. Reactors were rolled for 10 days at 32° C. and were plated for bacteria counts at 3, 7, and 10 days.
The enumeration of aerobic heterotrophs in the reactors utilized the standard spread plate method as described in Standard Methods for the Examination of Water and Wastewater, 1992, section 9215C. Bacterial counts were examined using R2A agar plates. 100 μL of a suitable dilution of sample was pipetted onto the surface of the media and spread with an alcohol and flame sterilized glass rod. The plates were inverted and incubated for 3 days at 32° C. with periodic examination. Colony forming units were counted on a New Brunswick Bactronic Colony Counter. A target of 30 to 300 cfu per plate was considered a valid count.

[1] = acid at 200 ppm of active material
[2] = acid at 500 ppm of active material
[3] = acid at 1000 ppm of active material

SMILES | Bacteria Count 3 day [1] | Bacteria Count 7 day [1] | Bacteria Count 10 day [1] | Bacteria Count 3 day [2] | Bacteria Count 7 day [2] | Bacteria Count 10 day [2] | Bacteria Count 3 day [3] | Bacteria Count 7 day [3] | Bacteria Count 10 day [3]
COCCOCC(=O)O [2-(2-methoxyethoxy)acetic, 2-(2-methoxyethoxy)acetic acid] | 8.0 × 10^6 | 2.8 × 10^7 | 2.3 × 10^7 | <4.0 × 10^1 | >1.2 × 10^4 | 4.0 × 10^6 | <4.0 × 10^1 | <4.0 × 10^1 | <4.0 × 10^1
COCCOCCOCC(=O)O [2-[2-(2-methoxyethoxy)-ethox]acetic, 2-[2-(methoxyethoxy)ethoxy]acetic acid] | 3.2 × 10^6 | 4.0 × 10^7 | 5.2 × 10^7 | <4.0 × 10^1 | >1.2 × 10^4 | 6.4 × 10^6 | <4.0 × 10^1 | <4.0 × 10^1 | <4.0 × 10^1
CCCCOCC(=O)O [Butoxyacetic, butoxyacetic acid] | 3.0 × 10^6 | 1.2 × 10^7 | 5.6 × 10^7 | <4.0 × 10^1 | <4.0 × 10^1 | <4.0 × 10^1 | <4.0 × 10^1 | <4.0 × 10^1 | <4.0 × 10^1
CCOCC(=O)O [Ethoxyacetic, ethoxyacetic acid] | 1.3 × 10^6 | 3.2 × 10^7 | 4.8 × 10^7 | <4.0 × 10^1 | <4.0 × 10^1 | <4.0 × 10^1 | <4.0 × 10^1 | <4.0 × 10^1 | <4.0 × 10^1
CC(O)C(=O)O (stereo not drawn) [Lactic, lactic acid, reference compound] | – | – | – | 7.2 × 10^7 | 7.8 × 10^7 | 2.4 × 10^7 | 2.4 × 10^7 | 5.0 × 10^7 | 2.3 × 10^7
COCC(=O)O [Methoxyacetic, methoxyacetic acid] | <4.0 × 10^1 | <4.0 × 10^2 | <4.0 × 10^1 | <4.0 × 10^1 | <4.0 × 10^1 | <4.0 × 10^1 | <4.0 × 10^1 | <4.0 × 10^1 | <4.0 × 10^1
O=C(O)COc1ccccc1 [Phenoxyacetic, phenoxyacetic acid] | 4.0 × 10^6 | 8.0 × 10^6 | 3.2 × 10^7 | <4.0 × 10^1 | <4.0 × 10^1 | <4.0 × 10^1 | <4.0 × 10^1 | <4.0 × 10^1 | <4.0 × 10^1
